From publication PMC5876388 (Scientific Reports, 2018) come the findings set out here.

One data set concerns the target T1, nicastrin (Homo sapiens, UniProt Q92542).
T1 construct: endogenous in cells; host or cells: HPB-ALL
As to the kind of experiment: Western blot in HPB-ALL cells. The class given is cell-based. As to the method: (A) Schematic representation of γ-secretase complex. γ-Secretase is composed of four membrane proteins: presenilin1 (PS1), nicastrin (NCT), anterior pharynx defective 1 (APH-1) and presenilin enhancer 2 (PEN-2). […] (E,F) Relative protein levels of nicastrin mature and immature analyzed by densitometry. […] P values were analyzed by Student’s t test.
Media also contained different concentrations of compound. Cells were incubated at 37 °C for 72 h (12 h, when treatment with MG132). After incubation, cells were centrifuged and collected, and then washed with 500 μL of PBS twice. To prepare cell lysate and confirm protein expression levels, the same method as described above was used.
Background: Immunoblotting shows a protein as a band on a membrane.

For the next data set, the system named is Notch1(1704–2531). The experiment in a line: Western blot in assay cells. The class given is cell-based, mouse. The note with it: LS174T Notch cells, 12 h. As to the method:
(§1) After another 12 h incubation with 50 ng/mL Dox, and cells were washed with PBS. Medium was changed to fresh medium with 2 and incubated for 12 h. […] (C–F) Relative protein levels analyzed by densitometry. […] P values were analyzed by Student’s t test.
(§2) Before another 12 h incubation, 50 ng/mL of doxycycline was added into each dish. Then, medium was changed to fresh medium with each compound. After 12 h incubation, cells were washed with PBS (500 μL) twice and then cells were collected by scraping. Using lysis buffer (20 mM Tris-HCl pH 7.4, 150 mM NaCl, 0.5% sodium deoxycholate, 10 mM EDTA, 1 mM sodium orthovanadate, and 0.1 mM NaF) containing a 1% […] inhibiotor cocktail (Nacalai Tesque, Tokyo, Japan), protein lysate was prepared. Protein lysates were separated by a 7.5%, 10%, 12.5% and 15% SDS-PAGE electrophoresis. Proteins were then transferred to a PVDF membrane (Bio-Rad Laboratories, Inc. Hercules, USA) electrophoretically. The membrane was incubated for 1 h with TBST (10 mM Tris-HCl pH 7.4, 100 mM NaCl and 0.1% Tween 20) containing 5% skimmed milk. […]

The test system of data set [1] is NICD. The experiment in a line: Western blot in assay cells. The format is cell-based, mouse. The following applies: LS174T Notch cells, 12 h. The protocol:
as §1, §2

Data set [2] can be described thus: Cytotoxicity test, AlamarBlue. The following applies: human, HPB-ALL cells. The protocol:
(§3) HPB-ALL cells (1 × 10^4 cells per well) were incubated in 96-well black plates at 37 °C for 72 h. Media also contained different concentrations of compound. After incubation, AlamarBlue was added 10 μL per well. After incubation for 4 h, using a fluorescence plate reader, fluorescence was measured and cell viability was determined. Data are presented as the mean with SD from three independent experiments. […] The effect on protein expression was analyzed by Western blotting. β-Actin was used as internal control. (D,E) Relative protein levels of NICD and HES1 analyzed by densitometry. Data are presented as the mean with SD from three independent experiments. *P < 0.05 is considered statistically significant. P values were analyzed by Student’s t test.
HPB-ALL cells (1 × 10^4 cells per well) were incubated in 96-well black plates in 100 μL of RPMI-1640 medium with 10% FBS, Streptomycin (100 μg/mL) and Penicillin (100 unit/mL). Media also contained different concentrations of compound. Cells were incubated at 37 °C for 72 h. After incubation, AlamarBlue (00–025, DAL1025; Thermo Fisher Scientific Inc., Waltham, USA) was added 10 μL per well. After incubation for 4 h, using a fluorescence plate reader (Thermo Fisher Scientific Inc., Waltham, USA), fluorescence was measured and cell viability was determined.
(Resazurin is reduced to fluorescent resorufin, in cell work by metabolically active cells.)

Data set [3] has as its system HES1. The experiment in a line: Western blot in HPB-ALL cells. The format is cell-based, human. The note with it: 10 μM, 72 h. As to the method: as §3
(§4) HPB-ALL cells were incubated in a 6 cm dish in 5 mL of RPMI-1640 medium with 10% FBS, Streptomycin (100 μg/mL) and Penicillin (100 unit/mL) at 5 × 10^5 cells per dish (1 × 10^6 cells per dish, when treatment with MG132). Media also contained different concentrations of compound. Cells were incubated at 37 °C for 72 h (12 h, when treatment with MG132). After incubation, cells were centrifuged and collected, and then washed with 500 μL of PBS twice. To prepare cell lysate and confirm protein expression levels, the same method as described above was used.

Data set [4] deals with NICD. As to the kind of experiment: Western blot in HPB-ALL cells. The format is cell-based, human. The note with it: 10 μM, 72 h. As to the method:
as §3, §4

Data set [5] concerns HES1. The experiment in a line: Western blot in assay cells. The format is cell-based. The note with it: LS174T Notch cells, 12 h. The protocol:
as §1, §2

A further data set deals with HES5. The experiment in a line: Western blot in assay cells. The following applies: LS174T Notch cells, 12 h. The class given is cell-based. As to the method:
as §1, §2

T1 sequence (Q92542 34-709): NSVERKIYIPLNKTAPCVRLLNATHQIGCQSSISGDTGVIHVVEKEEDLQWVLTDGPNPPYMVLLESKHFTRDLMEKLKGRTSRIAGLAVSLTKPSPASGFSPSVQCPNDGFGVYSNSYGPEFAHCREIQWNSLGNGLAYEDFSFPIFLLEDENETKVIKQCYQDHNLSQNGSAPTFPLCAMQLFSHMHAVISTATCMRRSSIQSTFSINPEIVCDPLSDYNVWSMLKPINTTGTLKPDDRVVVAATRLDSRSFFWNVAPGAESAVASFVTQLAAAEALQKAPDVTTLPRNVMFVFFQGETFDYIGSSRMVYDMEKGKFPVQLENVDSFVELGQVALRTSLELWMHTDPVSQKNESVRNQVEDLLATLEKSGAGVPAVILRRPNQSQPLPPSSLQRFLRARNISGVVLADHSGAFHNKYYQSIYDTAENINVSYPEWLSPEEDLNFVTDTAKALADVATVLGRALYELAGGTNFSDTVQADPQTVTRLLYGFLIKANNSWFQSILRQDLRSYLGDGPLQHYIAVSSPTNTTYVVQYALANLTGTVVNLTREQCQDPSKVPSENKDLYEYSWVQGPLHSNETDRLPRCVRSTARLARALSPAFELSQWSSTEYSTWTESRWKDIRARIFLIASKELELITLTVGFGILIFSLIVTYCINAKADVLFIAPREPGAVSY

The term IC50 denotes the point on the concentration scale where inhibition reaches its midpoint. High values mean weaker potency, low ones greater potency. By viability is commonly meant the share of living cells, or the viability signal relative to a control. A high value points to better survival. Regarding `COc1c(O)cc2oc3cc(O)c(CC=C(C)C)c(O)c3c(=O)c2c1C/C=C(\C)CCC=C(C)C` [Compound 2, cowanin], the “immature versus mature nicastrin” value on nicastrin (15 μM, 12 h, densitometry) was “decreased immature nicastrin stronger than mature nicastrin”. Moreover, the nicastrin levels result at nicastrin (72 h, Western blot) was “reduced”. The “decrease in nicastrin expression with proteasome inhibitor MG132” value at nicastrin (cowanin 15 μM + MG132 5 μM, 12 h) is reported as “not so marked”. The “expression of Notch1(1704–2531)” value in the data set with Notch1(1704–2531) is listed as “increased”. Further, the NICD level entry in the data set with NICD [1] was “reduced dose dependently”. In data set [2], this molecule registered an IC50 at 72 h of 7.5 µM and a viability at 12 h, 15 µM of 98%. In addition, the “expression of HES1” value in the data set on HES1 [3] is on record as “reduced”. Moreover, the “expression of NICD” value with NICD [4] is given as “reduced”. Besides, in the data set on HES1 [5], the “expression of HES1” value is on record as “reduced”. The “expression of HES5” value with HES5 is “reduced”.
